Experimental data taken from the NIST ThermoML archive (doi:10.1016/j.jct.2004.06.009).

Assay: molar heat capacity at constant pressure
Details: 101.33 kPa

CCC12CC3CC(CC(C3)C1)C2 [1-ethyladamantane]
Details | molar heat capacity at constant pressure [J/K/mol]
176.11 K, Crystal | 129.2
177.66 K, Crystal | 130.08
179.2 K, Crystal | 131.06
180.74 K, Crystal | 132.22
182.28 K, Crystal | 133.41
183.82 K, Crystal | 134.59
185.36 K, Crystal | 135.72
186.9 K, Crystal | 136.96
188.44 K, Crystal | 138.08
189.98 K, Crystal | 139.07
191.52 K, Crystal | 140.27
193.06 K, Crystal | 141.34
194.59 K, Crystal | 142.65
196.12 K, Crystal | 143.78
197.65 K, Crystal | 144.95
199.17 K, Crystal | 146.07
200.7 K, Crystal | 147.28
202.23 K, Crystal | 148.71
205.28 K, Crystal | 150.89
206.8 K, Crystal | 152.02
208.31 K, Crystal | 152.99
209.83 K, Crystal | 154.47
211.34 K, Crystal | 155.33
212.86 K, Crystal | 156.65
214.37 K, Crystal | 157.99
215.88 K, Crystal | 159.85
217.38 K, Crystal | 161.46
218.88 K, Crystal | 163.87
220.38 K, Crystal | 167.18
228.19 K, Liquid | 213.96
229.69 K, Liquid | 214.76
231.15 K, Liquid | 216.02
232.62 K, Liquid | 216.73
234.09 K, Liquid | 217.38
235.55 K, Liquid | 218.44
237.02 K, Liquid | 218.96
238.48 K, Liquid | 219.64
239.95 K, Liquid | 220.45
241.41 K, Liquid | 222.1
242.87 K, Liquid | 222.52
244.34 K, Liquid | 223.6
245.81 K, Liquid | 224.53
247.27 K, Liquid | 225.06
248.74 K, Liquid | 225.78
250.2 K, Liquid | 226.74
251.63 K, Liquid | 227.78
253.09 K, Liquid | 228.8
254.56 K, Liquid | 229.67
256.02 K, Liquid | 230.53
257.48 K, Liquid | 231.41
258.94 K, Liquid | 232.48
260.41 K, Liquid | 233.18
261.87 K, Liquid | 234.01
263.33 K, Liquid | 235.14
264.79 K, Liquid | 236.35
266.25 K, Liquid | 237.17
267.71 K, Liquid | 238.18
269.18 K, Liquid | 238.96
270.64 K, Liquid | 240.09
272.1 K, Liquid | 240.99
273.56 K, Liquid | 242.19
274.98 K, Liquid | 242.56
276.44 K, Liquid | 243.82
277.9 K, Liquid | 244.9
279.36 K, Liquid | 245.49
280.82 K, Liquid | 246.39
282.28 K, Liquid | 247.77
283.74 K, Liquid | 248.37
285.2 K, Liquid | 249.48
286.65 K, Liquid | 250.83
288.11 K, Liquid | 251.75
289.57 K, Liquid | 252.24
291.03 K, Liquid | 253.03
292.48 K, Liquid | 254.46
293.94 K, Liquid | 255.49
295.4 K, Liquid | 256.65
296.85 K, Liquid | 257.72
298.28 K, Liquid | 258.45
299.74 K, Liquid | 259.79
301.19 K, Liquid | 260.37
302.65 K, Liquid | 261.81
304.1 K, Liquid | 262.96
305.56 K, Liquid | 263.59
307.02 K, Liquid | 264.26
308.47 K, Liquid | 265.38
309.93 K, Liquid | 266.44
311.38 K, Liquid | 267.77
312.84 K, Liquid | 268.68
314.29 K, Liquid | 268.95
315.75 K, Liquid | 271
317.21 K, Liquid | 271.58
318.66 K, Liquid | 272.26
320.12 K, Liquid | 273.19
321.55 K, Liquid | 274.59
323 K, Liquid | 275.5
324.46 K, Liquid | 276.62
325.92 K, Liquid | 277.16
327.37 K, Liquid | 278.45
328.83 K, Liquid | 279.65
330.29 K, Liquid | 280.77
331.75 K, Liquid | 281.88
332.28 K, Liquid | 282.18
333.21 K, Liquid | 282.65
333.65 K, Liquid | 283.08
334.66 K, Liquid | 283.89
335.01 K, Liquid | 284.12
336.12 K, Liquid | 284.89
336.37 K, Liquid | 285.08
337.58 K, Liquid | 285.8
337.72 K, Liquid | 286.15
339.07 K, Liquid | 287.35
340.41 K, Liquid | 288.22
341.76 K, Liquid | 289.11
342.95 K, Liquid | 290.27
344.28 K, Liquid | 291.29
345.62 K, Liquid | 292.19
346.95 K, Liquid | 292.96
348.28 K, Liquid | 294.44
349.61 K, Liquid | 295.79
350.93 K, Liquid | 296.76
352.25 K, Liquid | 297.68
353.57 K, Liquid | 298.69
354.88 K, Liquid | 299.75
356.19 K, Liquid | 300.53
357.5 K, Liquid | 301.48
358.78 K, Liquid | 302.8
360.08 K, Liquid | 303.82
361.37 K, Liquid | 304.5
362.66 K, Liquid | 305.46
363.76 K, Liquid | 305.56
365.04 K, Liquid | 306.42
366.32 K, Liquid | 307.62
367.59 K, Liquid | 308.68
368.87 K, Liquid | 309.55
370.13 K, Liquid | 310.5
371.4 K, Liquid | 311.2
372.65 K, Liquid | 312.25
373.9 K, Liquid | 313.52
